Experimental data from paper PMC7567930 (Heliyon, 2020).
Entries after “also recorded” stand apart in the source; their conditions may differ. Read-outs that look alike come from different tables or passages of the source.

Target: Jack bean urease (Canavalia ensiformis, UniProt P07374)
Assay: Jack bean urease inhibition
Assay type: biochemical
[1] = read-out: IC50 ± SEM, Table 2, derivatives 6a-6f, triplicate
[2] = IC50 ± SEM, Table 1, derivatives 3a-3f, triplicate
[3] = urease inhibition IC50, values in the abstract

Jack bean urease, sequence (P07374 whole entry, looked up): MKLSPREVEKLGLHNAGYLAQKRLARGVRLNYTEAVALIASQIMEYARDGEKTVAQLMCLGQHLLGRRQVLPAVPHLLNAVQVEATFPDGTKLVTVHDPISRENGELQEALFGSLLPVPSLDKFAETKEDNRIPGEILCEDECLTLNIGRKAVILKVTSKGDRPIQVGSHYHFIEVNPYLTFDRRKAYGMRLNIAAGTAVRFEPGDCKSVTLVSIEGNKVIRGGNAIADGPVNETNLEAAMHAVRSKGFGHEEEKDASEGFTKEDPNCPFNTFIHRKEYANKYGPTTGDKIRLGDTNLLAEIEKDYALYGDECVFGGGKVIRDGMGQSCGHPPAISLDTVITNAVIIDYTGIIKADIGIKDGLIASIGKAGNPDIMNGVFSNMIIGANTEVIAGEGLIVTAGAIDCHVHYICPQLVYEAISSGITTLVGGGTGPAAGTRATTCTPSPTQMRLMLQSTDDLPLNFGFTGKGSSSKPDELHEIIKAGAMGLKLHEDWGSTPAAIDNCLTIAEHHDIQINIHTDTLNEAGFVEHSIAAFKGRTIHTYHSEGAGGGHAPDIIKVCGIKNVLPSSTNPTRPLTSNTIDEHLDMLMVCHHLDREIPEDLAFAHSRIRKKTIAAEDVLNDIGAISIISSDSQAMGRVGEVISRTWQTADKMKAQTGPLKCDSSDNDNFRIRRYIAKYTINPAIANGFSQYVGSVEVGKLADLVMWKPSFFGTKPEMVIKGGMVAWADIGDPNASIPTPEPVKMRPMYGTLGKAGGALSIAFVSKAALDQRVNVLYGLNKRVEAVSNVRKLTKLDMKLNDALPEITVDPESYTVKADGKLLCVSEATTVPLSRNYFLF

| IC50 [1] | Compound | urease inhibition, result in words | also measured |
| --- | --- | --- | --- |
| 38 ± 1.3 µM | COc1ccc2cc(C(C)n3cnc4ccccc43)ccc2c1 (racemic) [6a] |  |  |
| 36 ± 1.7 µM | COc1ccc2cc(C(C)c3nc4ccc(Cl)cc4[nH]3)ccc2c1 (racemic) [6b, (±)-6-chloro-2-((R)-1-(2-methoxynaphthalen-6-yl)ethyl)-1H-benzo[d]imidazol] |  |  |
| 51 ± 9.3 µM | COc1ccc2cc(C(C)c3nc4ccc(Br)cc4[nH]3)ccc2c1 (racemic) [6c, (±)-6-bromo-2-((R)-1-(2-methoxynaphthalen-6-yl)ethyl)-1H-benzo[d]imidazol] |  |  |
| 44 ± 2.4 µM | COc1ccc2cc(C(C)c3nc4ccc(C)cc4[nH]3)ccc2c1 (racemic) [6e, (±)-6-methyl-2-((R)-1-(2-methoxynaphthalen-6-yl)ethyl)-1H-benzo[d] imidazol] |  |  |
| 39 ± 2.4 µM | COc1ccc2cc(C(C)n3cnc4ccccc43)ccc2c1 (racemic) [6f] |  |  |
| 99 ± 9.4 µM | COc1ccc2cc(C(C)c3nc4ccc([N+](=O)[O-])cc4[nH]3)ccc2c1 (racemic) [compound 6d, (±)-6-Nitro-2-((R)-1-(2-methoxynaphthalen-6-yl)ethyl)-1H-benzo[d]imidazol] | not showing significant urease inhibition |  |
|  | CC(O)c1nc2ccccc2[nH]1 (single isomer, unassigned) [compound 3a, (R or S)-1-(1H-benzo[d]imidazol-2-yl)ethanol] | significant urease inhibition; also recorded: good enzyme inhibitory activity; also recorded: most potent | IC50 [2]: 22 ± 6.2 µM; IC50 [3]: 22.3 ± 6.2 µM |
|  | CC(O)c1nc2ccccc2[nH]1 (single isomer, unassigned) [compound 3f, (R or S)-1-(1H-benzo[d]imidazol-2-yl)ethanol] | significant urease inhibition; also recorded: good enzyme inhibitory activity; also recorded: most potent | IC50 [2]: 31 ± 23.3 µM; IC50 [3]: 31.4 ± 23.3 µM |
|  | NC(N)=S [thiourea, reference compound] |  | IC50 (read-out: IC50 of reference thiourea, standard inhibitor): 20.9 µM |
